Source: US10183032B2, “Methods for treating bacterial infection” (Ball State Innovation Corporation, priority 2012, dated 2019)

What was measured:
[1] = test system: vinculin-containing adhesion complexes; experiment: Vinculin-containing adhesion complexes in HUVEC; assay type: cell-based, human; details: ML 141 10 μM, 18-20 h, vehicle control 64%
Procedure: FIG. 10A is an image depicting ML 141 inhibition of CDC42 limiting the formation of adhesion complexes. Human umbilical vein endothelial cells (HUVEC) were incubated (18-20 h) with the vehicle control dimethyl sulfoxide (DMSO) or with ML 141 (10 μM). Pretreated HUVEC were fixed, permeabilized, blocked, and stained with anti-vinculin followed by anti-mouse Alexa Fluor 488. Arrows indicate vinculin-containing complexes. Data are presented as the % of cells where vinculin-containing adhesion complexes were detected. 100-200 cells/treatment were evaluated from randomly selected fields (p<0.001 by χ^2). Scale bar 50 μm.

[2] = test system: Staphylococcus aureus; experiment: Staphylococcus aureus host cell invasion assay in HUVEC, flow cytometry; assay type: cell-based
Procedure: In one embodiment, human umbilical vein endothelial cells (HUVEC, Life Technologies) are cultured in M200 medium supplemented with LSGS. RAW 264.7 cells (American Type Culture Collection, ATCC, Manassas, Va.) are cultured in RPMI supplemented with 10% FBS and L-glutamine. All cell types are maintained at 5% CO2, 37° C., in 75 cm^2 vented cap flasks (Thermo-Fisher). For assays, cultured cells are plated at 1×10^5 cells/ml in 35 mm culture dishes coated with Attachment Factor. The next day, cells are pretreated in culture medium containing the vehicle control or ML 141. For compound delivery, ML 141 first is suspended into DMSO or into PEG at a concentration of 5 mM. The 5 mM solution is diluted to 1 mM in the solvent and then diluted to the final concentration for each experiment in either serum-containing or serum-free medium. For vehicle control treatment, the same volume of PEG or DMSO as that of ML 141 is added to medium. The following day, the invasion assay is performed. For the shorter duration experiments, compound is added on the same day as the invasion assay, 1 hour prior to bacteria.
In another embodiment, HUVEC (Millipore, Billerica, Mass.) are cultured in EndoGRO LS Complete Media (Millipore) and are maintained at 5% CO2, 37° C., in 75 cm^2 vented cap flasks (Thermo-Fisher). For the invasion assay, cultured cells are plated at 1×10^4 cells/ml in 96-well culture dishes coated with Attachment Factor. The next day, cells are pretreated in culture medium containing the vehicle control, ML 141, or ML 141 structural analog. For compound delivery, ML 141 and structural analogs first are suspended into PEG at a concentration of 5 mM. The 5 mM solution is diluted to 1 mM in the solvent and then is diluted to the final concentration for each experiment in serum containing medium. For vehicle control treatment, the same volume of PEG as that of ML 141 or of ML 141 structural analog is added to the medium. The following day, the invasion assay is performed. Bacteria are added directly to medium containing vehicle control, ML 141, or the ML 141 structural analog.
Two days prior to the assay, TSB is inoculated with S. aureus (American Type Culture Collection #29213) and incubated overnight (225 rpm, 37° C.). Bacteria are subcultured the next day into fresh TSB. On the day of the assay, bacteria are pelleted (10000×g, 37° C., 3 min), are washed in saline, are pelleted as above, are resuspended in saline, then fluorescently labeled by incubation with rabbit anti-mouse IgG Alexa Fluor 488 (final concentration 8 μg/ml, RT, 20 min). Protein A, a S. aureus cell surface protein, avidly binds IgG thereby labeling the bacteria. Labeled bacteria are washed twice as above and are resuspended to 3×10^8 CFU/ml in saline. Host cells are incubated with the bacteria for 1 hour (1.2×10^8 CFU/ml for same-day recovery, 5×10^6 for recovery after 48 hours, 1.4×10^7 CFU/ml; 5% CO2, 37° C.). Following infection, extracellular bacteria are removed by extensive washes with PBS and incubation of the host cells with antimicrobials that have limited mammalian membrane permeability (lysostaphin, 20 μg/ml and gentamicin, 50 μg/ml; 45 min for same-day recovery studies, 48 hours for 2-day recovery studies; 5% CO2, 37° C.). To detect the level of infection using flow cytometry, cells that have been infected with fluorescently-labeled bacteria are washed extensively with PBS, lifted from 96-well plate by incubation with trypsin, washed extensively in FACS buffer (2% BSA/0.1% sodium azide/PBS), fixed (FACS buffer containing 0.74% formaldehyde), and are counted using an Accuri flow cytometer (BD, Franklin Lakes, N.J.). They are also lifted from culture dishes using cell scrapers, pelleted, fixed (1% BSA/0.74% formaldehyde/PBS), and are counted using an Accuri flow cytometer. For enumeration of the infecting bacteria, intracellular bacteria are released from host cells using 1% saponin/PBS (20 min, 5% CO2, 37° C.) and serial dilutions are plated on TSA (16 hours, 37° C.). […]

## COc1ccc(C2CC(c3ccccc3)=NN2c2ccc(S(N)(=O)=O)cc2)cc1 (stereo not drawn) [ML 141, 4-[3-(4-methoxyphenyl)-5-phenyl-3,4-dihydropyrazol-2-yl]benzenesulfonamide]
[1]
  % of cells with vinculin-containing adhesion complexes: 37%
[2]; ML 141 10.0 μM in PEG, 18 hours, HUVEC infected 1 hour
  decrease of invasion: more than 80%
[2]; Staphylococcus aureus, HUVEC, 18 h, read-out: inhibition of invasion
  inhibition at 10 µM: ~50%
